Read-outs that look alike come from different tables or passages of the source.
Tests used:
[1] = tested on: differentiated 3T3/L1 adipocytes; test: hFGF21 signalling in differentiated 3T3/L1 adipocytes with added FAP (immunoblot); assay type: cell-based; details: 5 µM; hFGF21 500 ng/mL pre-incubated with FAP 100 ng/mL for 2 h
Experimental: Treatment with hFGF21 increased p-ERK, Glut1 and adiponectin levels, which were reduced in the presence of FAP.
(a) Fully differentiated 3T3/L1 adipocytes were incubated with full-length hFGF21 at 500 ng/mL. […] Phosphorylated ERK (p-ERK), total ERK (ERK), Glut1, adiponectin and β-actin were measured by immunoblots. (b) Quantification of p-ERK, Glut1 and adiponectin was obtained with densitometric analysis, and normalized with total ERK or β-actin, respectively.
Western blots were performed as described. For protein preparation, cells or tissues were solubilized in a lysis buffer. Protein concentration was determined using a Bio-Rad Protein Assay kit (Bio-Rad, Richmond, CA). Then, 20 μg of the protein was electrophoresed by SDS-PAGE and electrotransferred to polyvinylidene fluoride membranes (Millipore, Bedford, MA). […] Antibodies were detected by horseradish peroxidase-linked secondary antibody (1:10,000; Cell Signaling Tech., 7074S), using the enhanced chemiluminescence Western Blotting Detection System (Molecular Imager Gel Doc XR System, BIO-RAD). […]

[2] = Microsomal stability, monkey; assay type: in vitro ADME; details: liver microsomes, pH 7.4, monkey (Mk), 0.5 mg/mL, NADPH, read-out: Microsomal stability (% remaining at 60 min)
Experimental: Aliquots were then transferred in duplicate to: (i) a final concentration plate that was immediately quenched with 23.6 ng/mL internal standard (IS, chlorpropamide) in acetonitrile (ACN) or (ii) tubes, which were centrifuged for 5 min at 4℃ (14,000 rpm). The samples were subjected to LC–MS/MS analysis on an AB Sciex 4000 Q Trap hybrid triple quadrupole linear ion-trap MS (AB Sciex, Framingham, MA) coupled to an Agilent 1200 HPLC (Agilent Tech. Santa Clara, CA) with a reverse-phase Kinetex XB-C18 column (2.1 × 100 mm, 2.6 µm; Phenomenex). Mobile phases were comprised of 0.1% formic acid (FA) in water (A) and 0.1 FA in ACN (B). Data analysis was performed using […] (Ver. 1.6.1).

[3] = Plasma protein binding, human; assay type: in vitro ADME; details: human (H), read-out: Plasma protein binding (% bound) (converted)
Experimental: Protein binding was conducted as described. Compound solutions prepared in DMSO were diluted in phosphate buffer (final concentration: 1 µg/mL), and added into human plasma (total volume: 1 mL). Aliquots were then transferred in duplicate to: (i) a final concentration plate that was immediately quenched with 23.6 ng/mL internal standard (IS, chlorpropamide) in ACN, (ii) a degradation control, which was placed in a water bath at 37℃ for 4 h, and (iii) ultracentrifuge tubes, which were centrifuged for 5 min at 4℃ (14,000 rpm). All reactions were stopped by the addition of ACN containing 23.6 ng/mL chlorpropamide. The samples were subjected to LC–MS/MS analysis.

[4] = Pharmacokinetic study in monkeys; assay type: in vivo; details: male, cynomolgus, cynomolgus monkey, plasma, inhaled or intranasal; for AUC(0-t): read-out: AUC(0–6 h)
Experimental: Six male cynomolgus monkeys (4.5–5.5 kg) were obtained from Sichuan Primed Shines Bio-tech Co., Ltd (Chengdu, Sichuan, China) and maintained at 18–26 °C, a relative humidity of 40%-70%, a minimum of 8 air changes/h, and a 12-h light/12-h dark cycle. […] Plasma sample preparations and analysis were the same as described in mice study.

CDAHFD NASH mouse model = test: In vivo study using CDAHFD mice (NASH model); set-up: species or system C57BL/6J mice
Experimental: C57BL/6J mice were fed normal chow diet (n = 5) or choline-deficient, L-amino acid-defined, high-fat diet (CDAHFD) for 4 weeks to induce NASH (n = 8–10/group). […] (a) Relative FAP activity was assessed by FRET-quench and serum FGF21 level at week 14. […] (c) Steatosis scores ranged from 0 to 3 (normal = 0, minimal = 1, moderate = 2, marked = 3) were determined. Hepatic steatosis and fibrosis (Picrosirius red stain) were analyzed in a blinded manner or by digital image analyzer. (d–e) Histological evaluations of liver tissue were performed in each group. Paraffin-embedded liver sections were stained with H&E (d) and Sirius red (e). Representative photographs of each group were presented. Images were obtained at 100x (Scale bar = 50 µm).
Male C57BL/6J mice (5 weeks of age) were fed with a CDAHFD consisting of 60% kcal fat and 0.1% methionine. […] For the CDAHFD model, compound treatments were started at the beginning of week 4 on the diet and continued until week 14. […] Liver tissue was then collected. All other measurements were done similarly as described above. Staining was performed using H&E and Picrosirius red as described previously. Areas of positive Sirius red were quantified by computer-based morphometric analysis.

ob/ob mice = test: Chronic study using ob/ob mice (4 weeks)
Text: (a) Nonfasting blood glucose levels in ob/ob mice. […] (g) The plasma levels of ALT (GPT), AST (GOT), TG, total cholesterol and NEFA in ob/ob mice. […] (i) Relative expression of genes related to intrahepatic lipogenic gene (GCK), fatty acid and TG synthesis genes (FASN, SREBP and APOC3, LIPIN1), β-oxidation genes (CPT1α, MCAD and PPARα) and FGF21 related genes (ATF4, CHOP, FGF21 and β-klotho) in liver and FGF21 related genes (AdipoQ and β-klotho) in white adipose tissue of ob/ob mice.
During the observation period, mice were monitored for glucose profiles and weighed. […] Under anesthesia, blood was promptly collected by orbital bleeding and then harvested. Liver tissue was then collected. Serum ALT, AST, TG, total cholesterol, and NEFA levels were assessed by KNOTUS (Incheon, Korea).

[5] = 10 and 30 mg/kg, week 14, vs vehicle

N#Cc1ccc(Cc2nc(C(=O)NCC(=O)N3CC(F)(F)C[C@H]3C#N)cs2)cc1 [BR103354, (S)-N-(2-(2-cyano-4,4-difluoropyrrolidin-1-yl)-2-oxoethyl)-2-(4-cyanobenzyl)thiazole-4-carboxamide]
Glut1 levels [1]: enhanced Glut1 levels | p-ERK levels [1]: restored p-ERK levels to those of normal | remaining at 1 h, 1 µM [2]: 81% | fraction unbound at 1 µg/mL [3]: 0.33 | Cmax ([4]; monkey, 10 mg/kg intranasally): 420 ng/mL | Tmax ([4]; monkey, 10 mg/kg intranasally): 2.3 h | AUC(0-t) ([4]; monkey, 10 mg/kg intranasally): 1200 ng·h/mL | half-life ([4]; monkey, 10 mg/kg intranasally, read-out: T1/2 (converted)): 1.3 h | Cmax ([4]; monkey, 30 mg/kg intranasally): 2000 ng/mL | Tmax ([4]; monkey, 30 mg/kg intranasally): 2.3 h | AUC(0-t) ([4]; monkey, 30 mg/kg intranasally): 6400 ng·h/mL | half-life ([4]; monkey, 30 mg/kg intranasally, read-out: T1/2 (converted)): 2.8 h | half-life ([4]; monkeys, 10/30 mg/kg, read-out: half-life (T1/2), range over doses): 1.3 to 2.8 h | Tmax ([4]; monkeys, dose not given in the sentence (10/30 mg/kg)): 2.3 h | liver fibrosis (Picrosirius red staining) (CDAHFD NASH mouse model; 10 and 30 mg/kg): significant reduction | increase of serum FGF21 levels (CDAHFD NASH mouse model; 10 and 30 mg/kg p.o. for 10 weeks): 1.5–1.9 folds | Steatosis scores (CDAHFD NASH mouse model; 10 and 30 mg/kg, score 0 to 3): significant reduction | TG (CDAHFD NASH mouse model; [5]): reduced | blood ALT levels (CDAHFD NASH mouse model; [5]): reduced | blood AST levels (CDAHFD NASH mouse model; [5]): reduced | glucose levels (CDAHFD NASH mouse model; [5]): reduced | total cholesterol (CDAHFD NASH mouse model; [5]): reduced | glucose tolerance (oral glucose tolerance test) (ob/ob mice; 50 mg/kg): improved glucose tolerance significantly | FGF21, ATF4 and CHOP mRNA expression in liver (ob/ob mice; 4 weeks): increased | liver TG content (Oil red O staining) (ob/ob mice; 4 weeks): decreased | body weight between treatments (ob/ob mice; 4 weeks (data not shown)): no change | ERK phosphorylation in adipose tissues (ob/ob mice; 4 weeks, vs vehicle): increased | Serum alanine aminotransferase (ALT) (ob/ob mice; 4 weeks, vs vehicle): significantly reduced | aspartate aminotransferase (AST) (ob/ob mice; 4 weeks, vs vehicle): significantly reduced | non-esterified free fatty acid (NEFA) levels (ob/ob mice; 4 weeks, vs vehicle): unaltered | serum TG (ob/ob mice; 4 weeks, vs vehicle): unaltered | total cholesterol (ob/ob mice; 4 weeks, vs vehicle): significantly reduced | nonfasting blood glucose (ob/ob mice; 20 and 50 mg/kg once daily p.o., from 2 weeks, vs vehicle (P < 0.01)): significantly decreased | increase of total form of serum FGF21 (ob/ob mice; 20 and 50 mg/kg, week 4): approximately 1.4 fold | adiponectin level in white adipose tissues (ob/ob mice; after 4 weeks of treatment): increased | fasting blood glucose levels (ob/ob mice; after 4 weeks of treatment): significantly reduced | fasting body weights (ob/ob mice; after 4 weeks of treatment): significantly reduced | insulin levels (ob/ob mice; after 4 weeks of treatment): significantly reduced | liver weights (ob/ob mice; after 4 weeks of treatment): significantly reduced

— article PMC7718273 (Scientific Reports, 2020)
